Data reported in patent US20250092039A1, “GLUTARIMIDE-CONTAINING PAN-KRAS-MUTANT DEGRADER COMPOUNDS AND USES THEREOF” (Tiger Biotherapeutics Inc., priority 2022, published 2025).

Experiments:
KRAS-G12V/RAF1 = KRAS-G12V/RAF1 (Homo sapiens (Human), UniProt P01116, G12V); experiment: KRAS/RAF1 binding inhibition assay (AlphaScreen)
Description: Binding affinity against GTP-bound KRAS of the compounds disclosed herein was measured by monitoring the interaction of guanosine 5′-[β,γ-imido]triphosphate-bound (GppNHp-bound) KRAS with the RBD domain of RAF1 in the presence of the test compound. […] The test compounds in 2% DMSO (final concentration) at various concentrations were then added to the reaction mixture and incubated for 60 minutes at 4° C.
Raw ALphaScreen data were converted to a percentage of inhibition (relative to DMSO) using the following equations: • a) For a given test compound concentration X: […]
The IC50 values were determined by nonlinear regression of plots of [inhibitor] vs. percentage of inhibition with variable slope, analyzed using GraphPad Prism (Version 9).

KRAS G12V = KRAS G12V (Homo sapiens (Human), UniProt P01116, G12V); experiment: KRAS G12V degradation in SW620 cells (Western blot, DC50); format: cell-based; conditions: 24 hours
Description: SW620 (KRAS G12V homozygous), AsPC1 (KRAS G12D homozygous), MIA PaCa2 (KRAS G12C homozygous), A549 (KRAS G12S homozygous) and MCF7 (KRAS WT) cells were obtained from American Type Culture Collection (ATCC). […] The following day, the test compound was administered to the cells by using 1000× compound stock solution prepared in DMSO at various concentrations. After administration of the compound, the cells were then incubated at 37° C. for 24 hours. Upon completion, the cells were washed with PBS and protein was collected in Laemmli sample buffer (1×; VWR International). Proteins in cell lysate were separated by SDS-PAGE and transferred to Odyssey nitrocellulose membranes (Licor) with iblot® dry blotting transfer system (ThermoFisher). Nonspecific binding was blocked by incubating membranes with Intercept Blocking Buffer (Licor) for 1 hour at room temperature with gentle shaking. […] After washing 3 times with TBS-T, the membranes were incubated with IRDye® 800CW goat anti-rabbit IgG (1:20,000, Licor) and IRDye® 680RD goat anti-mouse IgG (1:20,000, Licor) for 1 hour. After TBS-T washes, membranes were rinsed in TBS and Western blot images were acquired by Odyssey CLx (LI-COR Biosciences).
The signal intensity of target proteins was calculated using ImageStudio software. KRAS fluorescent intensity (FLU) from DMSO (vehicle) treatment was set as 100%. Relative KRAS expression level was determined by the following formula: […]
The percentage of KRAS expression was calculated using Microsoft Excel. The half-maximal degradation concentration (DCso) values were generated by GraphPad Prism (Version 9) using the dose-response equation of variable slope (four parameters).

Sequence of KRAS G12V (P01116-2 other isoform, or with tags, fused parts or gaps G12V): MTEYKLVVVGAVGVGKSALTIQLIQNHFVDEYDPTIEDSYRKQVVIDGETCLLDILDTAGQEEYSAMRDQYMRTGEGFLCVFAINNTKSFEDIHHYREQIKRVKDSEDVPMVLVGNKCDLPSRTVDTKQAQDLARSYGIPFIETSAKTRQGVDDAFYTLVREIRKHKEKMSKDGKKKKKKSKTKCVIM
Sequence of KRAS-G12V/RAF1 (P01116-2 other isoform, or with tags, fused parts or gaps G12V): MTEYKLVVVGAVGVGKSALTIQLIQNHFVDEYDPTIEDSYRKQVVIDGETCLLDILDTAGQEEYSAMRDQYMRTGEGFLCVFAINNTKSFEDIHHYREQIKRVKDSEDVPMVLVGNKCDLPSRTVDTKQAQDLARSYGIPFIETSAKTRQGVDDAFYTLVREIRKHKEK

| SMILES | IC50 (KRAS-G12V/RAF1) [nM] | DC50 (KRAS G12V) [nM] |
| --- | --- | --- |
| CCc1c(F)ccc2cc(O)cc(-c3ncc4c(N5CCC[C@@](C)(O)C5)nc(OCC5(CN6CCC(N7CCN(c8ccc9c(c8)CN([C@H]8CCC(=O)NC8=O)C9=O)CC7)CC6)CC5)nc4c3F)c12 [Compound 7, (S)-3-(5-(4-(1-((1-(((7-(8-ethyl-7-fluoro-3-hydroxynaphthalen-1-yl)-8-fluoro-4-((R)-3-hydroxy-3-methylpiperidin-1-yl)pyrido[4,3-d]pyrimidin-2-yl)oxy)methyl)cyclopropyl)methyl)piperidin-4-yl)piperazin-1-yl)-1-oxoisoindolin-2-yl)piperidine-2.6-dione] |  | < 1 |
| CCc1c(F)ccc2cc(O)cc(-c3ncc4c(N5CCCC6(CCO6)C5)nc(OCC5(CN6CCC(CN7CCN(c8ccc9c(c8)CN(C8CCC(=O)NC8=O)C9=O)CC7)CC6)CC5)nc4c3F)c12 [Compound 23, (3S)-3-(5-(4-((1-((1-(((7-(8-ethyl-7-fluoro-3-hydroxynaphthalen-1-yl)-8-fluoro-4-(1-oxa-6-azaspiro[3.5]nonan-6-yl)pyrido[4,3-d]pyrimidin-2-yl)oxy)methyl)cyclopropyl)methyl)piperidin-4-yl)methyl)piperazin-1-yl)-1-oxoisoindolin-2-yl)piperidine-2,6-dione] |  | 1 to 10 |
| CCc1cccc2cc(O)cc(-c3ncc4c(N(C)C5C[C@H]5F)nc(OCC5(CN6CCC(CN7CCN(c8ccc9c(c8)CN([C@H]8CCC(=O)NC8=O)C9=O)CC7)CC6)CC5)nc4c3F)c12 (stereo partly drawn) [Compound 29, (S)-3-(5-(4-((1-((1-(((7-(8-ethyl-3-hydroxynaphthalen-1-yl)-8-fluoro-4-(((1R,2R)-2-fluorocyclopropyl)(methyl)amino)pyrido[4,3-d]pyrimidin-2-yl)oxy)methyl)cyclopropyl)methyl)piperidin-4-yl)methyl)piperazin-1-yl)-1-oxoisoindolin-2-yl)piperidine-2,6-dione] |  | 1 to 10 |
| CCc1c(F)ccc2cc(O)cc(-c3ncc4c(N5CCC[C@]6(CCO6)C5)nc(OCC5(CN6CCC(CN7CCN(c8ccc9c(c8)CN(C8CCC(=O)NC8=O)C9=O)CC7)CC6)CC5)nc4c3F)c12 (stereo partly drawn) [Compound 44, (S)-3-(5-(4-((1-((1-(((7-(8-ethyl-7-fluoro-3-hydroxynaphthalen-1-yl)-8-fluoro-4-((S)-1-oxa-6-azaspiro[3.5]nonan-6-yl)pyrido[4,3-d]pyrimidin-2-yl)oxy)methyl)cyclopropyl)methyl)piperidin-4-yl)methyl)piperazin-1-yl)-1-oxoisoindolin-2-yl)piperidine-2,6-dione] |  | 1 to 10 |
| CCc1c(F)ccc2cc(O)cc(-c3ncc4c(N5CCC[C@@]6(CCO6)C5)nc(OCC5(CN6CCC(CN7CCN(c8ccc9c(c8)CN(C8CCC(=O)NC8=O)C9=O)CC7)CC6)CC5)nc4c3F)c12 (stereo partly drawn) [Compound 45, (S)-3-(5-(4-((1-((1-(((7-(8-ethyl-7-fluoro-3-hydroxynaphthalen-1-yl)-8-fluoro-4-((R)-1-oxa-6-azaspiro[3.5]nonan-6-yl)pyrido[4,3-d]pyrimidin-2-yl)oxy)methyl)cyclopropyl)methyl)piperidin-4-yl)methyl)piperazin-1-yl)-1-oxoisoindolin-2-yl)piperidine-2,6-dione] |  | > 100 |
| CCc1c(F)ccc2cc(O)cc(-c3ncc4c(N5CCCn6nc(C(=O)N(C)C)c(Cl)c6C5)nc(OCC5(CN6CCC7(CC6)CC(CN6CCN(c8ccc9c(c8)CN([C@H]8CCC(=O)NC8=O)C9=O)CC6)C7)CC5)nc4c3F)c12 [Compound 94, (S)-3-chloro-5-(2-((1-((2-((4-(2-(2,6-dioxopiperidin-3-yl)-1-oxoisoindolin-5-yl)piperazin-1-yl)methyl)-7-azaspiro[3.5]nonan-7-yl)methyl)cyclopropyl)methoxy)-7-(8-ethyl-7-fluoro-3-hydroxynaphthalen-1-yl)-8-fluoropyrido[4,3-d]pyrimidin-4-yl)-N,N-dimethyl-5,6,7,8-tetrahydro-4H-pyrazolo[1,5-a][1,4]diazepine-2-carboxamide] | > 200 | 1 to 10 |

Continued, values first:

| IC50 (KRAS-G12V/RAF1) [nM] | DC50 (KRAS G12V) [nM] | SMILES |
| --- | --- | --- |
| > 200 | < 1 | CCc1c(F)ccc2cc(O)cc(-c3ncc4c(N5C[C@@H]6C[C@H](C5)[C@H](O)C6)nc(OCC5(CN6CCC(CN7CCN(c8ccc9c(c8)CN([C@H]8CCC(=O)NC8=O)C9=O)CC7)CC6)CC5)nc4c3F)c12 (stereo in doubt) [Compound 96, (S)-3-(5-(4-((1-((1-(((7-(8-ethyl-7-fluoro-3-hydroxynaphthalen-1-yl)-8-fluoro-4-((1R,SR,6R)-6-hydroxy-3-azabicyclo[3.2.1]octan-3-yl)pyrido[4,3-d]pyrimidin-2-yl)oxy)methyl)cyclopropyl)methyl)piperidin-4-yl)methyl)piperazin-1-yl)-1-oxoisoindolin-2-yl)piperidine-2,6-dione] |
|  | > 100 | CCc1c(F)ccc2cc(O)cc(-c3ncc4c(N5CCCNC(=O)C5)nc(OCC5(CN6CCC(CN7CCN(c8ccc9c(c8)CN([C@H]8CCC(=O)NC8=O)C9=O)CC7)CC6)CC5)nc4c3F)c12 [Compound 95, (S)-3-(5-(4-((1-((1-(((7-(8-ethyl-7-fluoro-3-hydroxynaphthalen-1-yl)-8-fluoro-4-(3-oxo-1,4-diazepan-1-yl)pyrido[4,3-d]pyrimidin-2-yl)oxy)methyl)cyclopropyl)methyl)piperidin-4-yl)methyl)piperazin-1-yl)-1-oxoisoindolin-2-yl)piperidine-2,6-dione] |
| > 200 | > 100 | CCc1c(F)ccc2cc(O)cc(-c3ncc4c(N5CCCC6(CC(O)C6)C5)nc(OCC5(CN6CCC7(CC6)CC(CN6CCN(c8ccc9c(c8)CN([C@H]8CCC(=O)NC8=O)C9=O)CC6)C7)CC5)nc4c3F)c12 [Compound 97, (S)-3-(5-(4-((7-((1-(((7-(8-ethyl-7-fluoro-3-hydroxynaphthalen-1-yl)-8-fluoro-4-(2-hydroxy-6-azaspiro[3.5]nonan-6-yl)pyrido[4,3-d]pyrimidin-2-yl)oxy)methyl)cyclopropyl)methyl)-7-azaspiro[3.5]nonan-2-yl)methyl)piperazin-1-yl)-1-oxoisoindolin-2-yl)piperidine-2,6-dione] |
| > 200 | 1 to 10 | CCc1c(F)ccc2cc(O)cc(-c3ncc4c(N5CCCC6(CC(O)C6)C5)nc(OCC5(CN6CCC(CN7CCN(c8ccc9c(c8)CN([C@H]8CCC(=O)NC8=O)C9=O)CC7)CC6)CC5)nc4c3F)c12 (stereo partly drawn) [Compound 98, (S)-3-(5-(4-((1-((1-(((7-(8-ethyl-7-fluoro-3-hydroxynaphthalen-1-yl)-8-fluoro-4-(2-hydroxy-6-azaspiro[3.5]nonan-6-yl)pyrido[4,3-d]pyrimidin-2-yl)oxy)methyl)cyclopropyl)methyl)piperidin-4-yl)methyl)piperazin-1-yl)-1-oxoisoindolin-2-yl)piperidine-2,6-dione] |
| 20 to 200 |  | CCc1c(F)ccc2cc(O)cc(-c3ncc4c(N5CCOCC6(CCO6)C5)nc(OCC5(CN6CCC(CN7CCN(c8ccc9c(c8)CN([C@H]8CCC(=O)NC8=O)C9=O)CC7)CC6)CC5)nc4c3F)c12 (stereo partly drawn) [Compound 125, (3S)-3-(5-(4-((1-((1-(((7-(8-ethyl-7-fluoro-3-hydroxynaphthalen-1-yl)-8-fluoro-4-(1,6-dioxa-9-azaspiro[3.6]decan-9-yl)pyrido[4,3-d]pyrimidin-2-yl)oxy)methyl)cyclopropyl)methyl)piperidin-4-yl)methyl)piperazin-1-yl)-1-oxoisoindolin-2-yl)piperidine-2,6-dione] |
|  | > 100 | CCc1cccc2cc(O)cc(-c3ncc4c(N5CCNC(=O)CC5)nc(OCC5(CN6CCC(CN7CCN(c8ccc9c(c8)CN([C@H]8CCC(=O)NC8=O)C9=O)CC7)CC6)CC5)nc4c3F)c12 [Compound 127, (S)-3-(5-(4-((1-((1-(((7-(8-ethyl-3-hydroxynaphthalen-1-yl)-8-fluoro-4-(5-oxo-1,4-diazepan-1-yl)pyrido[4,3-d]pyrimidin-2-yl)oxy)methyl)cyclopropyl)methyl)piperidin-4-yl)methyl)piperazin-1-yl)-1-oxoisoindolin-2-yl)piperidine-2,6-dione] |
| 20 to 200 |  | CCc1cccc2cc(O)cc(-c3ncc4c(N5CCC[C@@](C)(O)C5)nc(OCC5(CN6CC7(CCC(F)(CN8CCN(c9ccc%10c(c9)CN([C@H]9CCC(=O)NC9=O)C%10=O)CC8)CC7)C6)CC5)nc4c3F)c12 [Compound 179, (S)-3-(5-(4-((2-((1-(((7-(8-ethyl-3-hydroxynaphthalen-1-yl)-8-fluoro-4-((R)-3-hydroxy-3-methylpiperidin-1-yl)pyrido[4,3-d]pyrimidin-2-yl)oxy)methyl)cyclopropyl)methyl)-7-fluoro-2-azaspiro[3.5]nonan-7-yl)methyl)piperazin-1-yl)-1-oxoisoindolin-2-yl)piperidine-2,6-dione] |
